Data on 28 compounds can be found in US10239883B2, “4-imidazopyridazin-1-yl-benzamides as BTK inhibitors” (Merck Sharp & Dohme B.V., priority 2011, dated 2019).

Where only a bound is given, the exact number is not on record here.

Sequence of Lck enzyme (P06239 whole entry): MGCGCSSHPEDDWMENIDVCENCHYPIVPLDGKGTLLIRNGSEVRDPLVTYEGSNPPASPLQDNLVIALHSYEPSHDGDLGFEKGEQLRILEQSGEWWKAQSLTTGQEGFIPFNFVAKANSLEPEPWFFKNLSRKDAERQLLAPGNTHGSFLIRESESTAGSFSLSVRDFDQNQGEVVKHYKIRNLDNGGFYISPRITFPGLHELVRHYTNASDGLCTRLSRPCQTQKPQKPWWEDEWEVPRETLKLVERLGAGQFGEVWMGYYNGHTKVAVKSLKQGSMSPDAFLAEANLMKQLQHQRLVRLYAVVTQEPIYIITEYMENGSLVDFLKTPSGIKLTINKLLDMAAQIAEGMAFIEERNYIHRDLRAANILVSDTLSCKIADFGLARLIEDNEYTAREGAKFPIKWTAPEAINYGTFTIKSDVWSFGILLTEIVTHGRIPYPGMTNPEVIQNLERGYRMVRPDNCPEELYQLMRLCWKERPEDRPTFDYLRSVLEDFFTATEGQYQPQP

The target of the first assay is Btk enzyme (His-Btk) (Homo sapiens (Human), UniProt Q06187). As to the kind of experiment: Btk enzyme activity, IMAP fluorescence polarization assay. To be noted: 60 min pre-incubation, 5 μM ATP, bin bound in nM. On the technique in general: Fluorescence polarisation rises when a labelled molecule tumbles more slowly, as on binding a larger partner.
Sequence of Btk enzyme (His-Btk) (Q06187 whole entry): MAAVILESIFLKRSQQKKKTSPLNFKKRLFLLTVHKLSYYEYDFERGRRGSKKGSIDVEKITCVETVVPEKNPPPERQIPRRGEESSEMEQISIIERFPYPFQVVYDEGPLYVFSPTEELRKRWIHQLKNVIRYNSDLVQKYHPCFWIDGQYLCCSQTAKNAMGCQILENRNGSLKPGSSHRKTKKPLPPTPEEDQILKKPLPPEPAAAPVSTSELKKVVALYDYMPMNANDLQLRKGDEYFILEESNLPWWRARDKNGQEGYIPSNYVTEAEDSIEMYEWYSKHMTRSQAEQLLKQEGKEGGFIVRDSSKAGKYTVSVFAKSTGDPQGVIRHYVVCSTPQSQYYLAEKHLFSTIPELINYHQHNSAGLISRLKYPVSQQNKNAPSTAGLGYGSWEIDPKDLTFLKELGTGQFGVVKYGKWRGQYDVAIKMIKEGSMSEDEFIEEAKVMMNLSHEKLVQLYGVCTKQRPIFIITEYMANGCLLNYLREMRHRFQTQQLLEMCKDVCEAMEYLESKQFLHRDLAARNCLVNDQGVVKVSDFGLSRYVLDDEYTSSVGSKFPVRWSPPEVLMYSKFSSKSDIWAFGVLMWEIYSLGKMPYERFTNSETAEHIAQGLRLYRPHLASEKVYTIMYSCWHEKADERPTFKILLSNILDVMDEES
Regarding `C[C@H](NC(=O)c1ccnc(Cl)n1)c1nc(-c2ccc(C(=O)Nc3ccccn3)cc2)c2c(N)nccn12` [Example 105, (S)-N-(1-(8-amino-1-(4-(pyridin-2-ylcarbamoyl)phenyl)imidazo[1,5-a]pyrazin-3-yl)ethyl)-2-chloropyrimidine-4-carboxamide], the “EC50 Btk activity values” is on record as less than 100 nM. Still for that read-out and setting: under `CC#CC(=O)N1CCC[C@H]1c1nc(-c2ccc(C(=O)Nc3ccccn3)c(F)c2)c2c(N)nccn12` [Example 50, (S)-4-(8-amino-3-(1-but-2-ynoylpyrrolidin-2-yl)imidazo[1,5-a]pyrazin-1-yl)-2-fluoro-N-(pyridin-2-yl)benzamide] stands less than 100 nM. Same read-out and setting: under `COC/C=C/C(=O)N1CCC[C@H]1c1nc(-c2ccc(C(=O)Nc3ccccn3)c(OC)c2)c2c(N)nccn12` [Example 103, (S,E)-4-(8-amino-3-(1-(4-methoxybut-2-enoyl)pyrrolidin-2-yl)imidazo[1,5-a]pyrazin-1-yl)-2-methoxy-N-(pyridin-2-yl)benzamide] stands less than 100 nM; under `CC#CC(=O)N1CCC[C@H]1c1nc(-c2ccc(C(=O)Nc3ccccn3)c(OC)c2)c2c(N)nccn12` [Example 99, (S)-4-(8-amino-3-(1-but-2-ynoylpyrrolidin-2-yl)imidazo[1,5-a]pyrazin-1-yl)-2-methoxy-N-(pyridin-2-yl)benzamide], less than 100 nM. `COC/C=C/C(=O)N1CCCC[C@H]1c1nc(-c2ccc(C(=O)Nc3cc(F)ccn3)cc2)c2c(N)nccn12` [Example 81, (S,E)-4-(8-amino-3-(1-(4-methoxybut-2-enoyl)piperidin-2-yl)imidazo[1,5-a]pyrazin-1-yl)-N-(4-fluoropyridin-2-yl)benzamide]: the “EC50 Btk activity values” is less than 100 nM. On to `COC/C=C/C(=O)N1CCC[C@H]1c1nc(-c2ccc(C(=O)Nc3cc(C(C)C)ccn3)cc2)c2c(N)nccn12` [Example 58, (S,E)-4-(8-amino-3-(1-(4-methoxybut-2-enoyl)pyrrolidin-2-yl)imidazo[1,5-a]pyrazin-1-yl)-N-(4-isopropylpyridin-2-yl)benzamide], for which the “EC50 Btk activity values” is less than 100 nM. Still for that read-out and setting: under `Nc1nccn2c([C@@H]3CCCN3C(=O)c3ccnc(Cl)n3)nc(-c3ccc(C(=O)Nc4nc5c(s4)CCCC5)cc3)c12` [Example 71, (S)-4-(8-amino-3-(1-(2-chloropyrimidine-4-carbonyl)pyrrolidin-2-yl)imidazo[1,5-a]pyrazin-1-yl)-N-(4,5,6,7-tetrahydrobenzo[d]thiazol-2-yl)benzamide] stands less than 100 nM. The same measure, in the same setting: under `Nc1nccn2c([C@@H]3CCCN3C(=O)c3ccnc(Cl)n3)nc(-c3ccc(C(=O)Nc4cc(C(F)(F)F)ccn4)cc3)c12` [Example 119, (S)-4-(8-amino-3-(1-(2-chloropyrimidine-4-carbonyl)pyrrolidin-2-yl)imidazo[1,5-a]pyrazin-1-yl)-N-(4-(trifluoromethyl)pyridin-2-yl)benzamide] stands less than 100 nM. The same measure, in the same setting: then `COC/C=C/C(=O)NCc1nc(-c2ccc(C(=O)Nc3ccccn3)cc2)c2c(N)nccn12` [Example 95, (E)-4-(8-amino-3-((4-methoxybut-2-enamido)methyl)imidazo[1,5-a]pyrazin-1-yl)-N-(pyridin-2-yl)benzamide], with less than 100 nM. Take `COCC#CC(=O)N1CCC[C@H]1c1nc(-c2ccc(C(=O)Nc3ccccn3)cc2)c2c(N)nccn12` [Example 41, (S)-4-(8-Amino-3-(1-(4-methoxybut-2-ynoyl)pyrrolidin-2-yl)imidazo[1,5-a]pyrazin-1-yl)-N-(pyridin-2-yl)benzamide]: the “EC50 Btk activity values” is less than 100 nM.

In the case of `CC(C)c1ccnc(NC(=O)c2ccc(-c3nc([C@@H]4CCCN4C(=O)c4ccnc(Cl)n4)n4ccnc(N)c34)cc2)c1` [Example 70, (S)-4-(8-amino-3-(1-(2-chloropyrimidine-4-carbonyl)pyrrolidin-2-yl)imidazo[1,5-a]pyrazin-1-yl)-N-(4-isopropylpyridin-2-yl)benzamide], the “EC50 Btk activity values” is reported as less than 100 nM. On the same count and under the same terms, then `Nc1nccn2c([C@@H]3CCCN3C(=O)c3ccnc(Cl)n3)nc(-c3ccc(C(=O)Nc4ccccn4)cc3)c12` [Example 5, (S)-4-(8-amino-3-(1-(2-chloropyrimidine-4-carbonyl)pyrrolidin-2-yl)imidazo[1,5-a]pyrazin-1-yl)-N-(pyridin-2-yl)benzamide], with less than 100 nM; and `CCCc1ccnc(NC(=O)c2ccc(-c3nc([C@@H]4CCCCN4C(=O)/C=C/COC)n4ccnc(N)c34)cc2F)c1` [Example 114, (S,E)-4-(8-amino-3-(1-(4-methoxybut-2-enoyl)piperidin-2-yl)imidazo[1,5-a]pyrazin-1-yl)-2-fluoro-N-(4-propylpyridin-2-yl)benzamide], with less than 100 nM; and `CN(C)C/C=C/C(=O)N1CCC[C@H]1c1nc(-c2ccc(C(=O)Nc3cc(F)ccn3)cc2)c2c(N)nccn12` [Example 7, (S,E)-4-(8-Amino-3-(1-(4-(dimethylamino)but-2-enoyl)pyrrolidin-2-yl)imidazo[1,5-a]pyrazin-1-yl)-N-(4-fluoropyridin-2-yl)benzamide], with less than 100 nM.

`Cc1cc(C(=O)Nc2ccccn2)ccc1-c1nc([C@@H]2CCCCN2C(=O)c2ccnc(Cl)n2)n2ccnc(N)c12` [Example 56, 4-(8-amino-3-((S)-1-(2-chloropyrimidine-4-carbonyl)piperidin-2-yl)imidazo[1,5-a]pyrazin-1-yl)-3-methyl-N-(pyridin-2-yl)benzamide]: the “EC50 Btk activity values” is on record as less than 100 nM. Still for that read-out and setting: then `COc1cc(-c2nc([C@@H]3CCCN3C(=O)c3ccnc(Cl)n3)n3ccnc(N)c23)ccc1C(=O)Nc1ccccn1` [Example 83, (S)-4-(8-amino-3-(1-(2-chloropyrimidine-4-carbonyl)pyrrolidin-2-yl)imidazo[1,5-a]pyrazin-1-yl)-2-methoxy-N-(pyridin-2-yl)benzamide], with less than 100 nM.

The assay is the same for the next values; noted with them: 60 min pre-incubation, 5 μM ATP, bin bound in μM.
Turning to `Nc1nccn2c([C@@H]3CCCN3C(=O)/C=C/c3ccccc3)nc(-c3ccc(C(=O)Nc4ccccn4)cc3)c12` [Example 104, (S,E)-4-(8-amino-3-(1-cinnamoylpyrrolidin-2-yl)imidazo[1,5-a]pyrazin-1-yl)-N-(pyridin-2-yl)benzamide], the “EC50 Btk activity values” was less than 1000 nM. Still for that read-out and setting: under `COC/C=C/C(=O)N1CCCC[C@H]1c1nc(-c2ccc(C(=O)Nc3ccon3)cc2)c2c(N)nccn12` [Example 54, (S,E)-4-(8-amino-3-(1-(4-methoxybut-2-enoyl)piperidin-2-yl)imidazo[1,5-a]pyrazin-1-yl)-N-(isoxazol-3-yl)benzamide] stands less than 1000 nM. `COC/C=C/C(=O)N1CCC[C@H]1c1nc(-c2ccc(C(=O)Nc3cc(F)ccn3)cc2)c2c(N)nccn12` [Example 53, (S,E)-4-(8-amino-3-(1-(4-methoxybut-2-enoyl)pyrrolidin-2-yl)imidazo[1,5-a]pyrazin-1-yl)-N-(4-fluoropyridin-2-yl)benzamide]: the “EC50 Btk activity values” was less than 1000 nM. In the case of `Nc1nccn2c([C@@H]3CCCCN3C(=O)c3ccnc(Cl)n3)nc(-c3ccc(C(=O)Nc4ncccn4)cc3)c12` [Example 90, (S)-4-(8-amino-3-(1-(2-chloropyrimidine-4-carbonyl)piperidin-2-yl)imidazo[1,5-a]pyrazin-1-yl)-N-(pyrimidin-2-yl)benzamide], the “EC50 Btk activity values” was less than 1000 nM. The same measure, in the same setting: under `COC/C=C/C(=O)N1CCCC[C@H]1c1nc(-c2ccc(C(=O)Nc3ccccn3)cc2C)c2c(N)nccn12` [Example 85, 4-(8-amino-3-((S)-1-((E)-4-methoxybut-2-enoyl)piperidin-2-yl)imidazo[1,5-a]pyrazin-1-yl)-3-methyl-N-(pyridin-2-yl)benzamide] stands less than 1000 nM; under `COC/C=C/C(=O)N1CCC[C@H]1c1nc(-c2ccc(C(=O)Nc3ccccn3)c(F)c2)c2c(N)nccn12` [Example 52], less than 1000 nM; under `COC/C=C/C(=O)N1CCCC[C@H]1c1nc(-c2ccc(C(=O)Nc3ccncn3)cc2)c2c(N)nccn12` [Example 86, (S,E)-4-(8-amino-3-(1-(4-methoxybut-2-enoyl)piperidin-2-yl)imidazo[1,5-a]pyrazin-1-yl)-N-(pyrimidin-4-yl)benzamide], less than 1000 nM.

A further assay concerns the target Lck enzyme (Homo sapiens (Human), UniProt P06239). As to the kind of experiment: Lck enzyme activity, IMAP fluorescence polarization assay. To be noted: 60 min pre-incubation, 6 μM ATP, bin bound in μM.
`Nc1nccn2c([C@@H]3CCCN3C(=O)/C=C/c3ccccc3)nc(-c3ccc(C(=O)Nc4ccccn4)cc3)c12` [Example 104, (S,E)-4-(8-amino-3-(1-cinnamoylpyrrolidin-2-yl)imidazo[1,5-a]pyrazin-1-yl)-N-(pyridin-2-yl)benzamide]: the “EC50 Lck activity values” was less than 1 µM.

In the case of `CC#CC(=O)N1CCC[C@H]1c1nc(-c2ccc(C(=O)Nc3cc(-c4ccccc4)ccn3)cc2)c2c(N)nccn12` [Example 132, (S)-4-(8-amino-3-(1-but-2-ynoylpyrrolidin-2-yl)imidazo[1,5-a]pyrazin-1-yl)-N-(4-phenylpyridin-2-yl)benzamide], the “EC50 Lck activity values” is less than 1 µM. As for `C=CC(=O)N1CCC[C@H]1c1nc(-c2ccc(C(=O)Nc3cc(C(F)(F)F)ccn3)cc2)c2c(N)nccn12` [Example 62, (S)-4-(3-(1-acryloylpyrrolidin-2-yl)-8-aminoimidazo[1,5-a]pyrazin-1-yl)-N-(4-(trifluoromethyl)pyridin-2-yl)benzamide], the “EC50 Lck activity values” is less than 1 µM. The same measure, in the same setting: then `CC#CC(=O)N1CCCC[C@H]1c1nc(-c2ccc(C(=O)Nc3cc(CCC)ccn3)cc2)c2c(N)nccn12` [Example 64, (S)-4-(8-amino-3-(1-but-2-ynoylpiperidin-2-yl)imidazo[1,5-a]pyrazin-1-yl)-N-(4-propylpyridin-2-yl)benzamide], with less than 1 µM. The same measure, in the same setting: under `C=CC(=O)N1CCC[C@H]1c1nc(-c2ccc(C(=O)Nc3cc(C#N)ccn3)cc2)c2c(N)nccn12` [Example 122, (S)-4-(3-(1-acryloylpyrrolidin-2-yl)-8-aminoimidazo[1,5-a]pyrazin-1-yl)-N-(4-cyanopyridin-2-yl)benzamide] stands less than 1 µM; under `CCCc1ccnc(NC(=O)c2ccc(-c3nc([C@H](C)N(C)C(=O)/C=C/CN(C)C)n4ccnc(N)c34)cc2)c1` [Example 76, (S,E)-4-(8-amino-3-(1-(4-(dimethylamino)-N-methylbut-2-enamido)ethyl)imidazo[1,5-a]pyrazin-1-yl)-N-(4-propylpyridin-2-yl)benzamide], less than 1 µM.
